Measurements published in publication PMC11928319 (Nature Plants, 2025).
Values joined by “and” are separate entries in the source; they are usually repeats but may differ in a detail not shown here. Equal values may be shown once.

Test system: EFR
Test: Expression of EFR normalized to UBQ5 in roots (RT–qPCR) and pEFR::NLS–3*mVenus reporter
Assay type: in vivo, Arabidopsis thaliana
Settings: timepoint 1h, single samples
Method: Axenic 14-day-old seedlings (see ‘Agar-based cultivation of axenic plants and co-cultivation with bacteria, bacterial supernatants and elicitors’) were submerged in 12 ml of 10 mM MgSO4 supplemented with 1 µM elicitor or bacteria, which were directly harvested from 0.5× TSB plates and resuspended in 10 mM MgSO4. Bacterial concentration was adjusted to OD600 = 1.5, if not indicated differently. For a heat-killed bacterial inoculum, resuspended bacteria were incubated in boiling water for 30 min. […] For co-exposure to flg22 and AtPep1, seedlings were submerged as described for 1 h, residual liquid was removed and the plants were incubated in a cultivation chamber for 4 h prior to harvesting.
For reverse transcription quantitative PCR (RT–qPCR), roots of eight to ten plants grown on one square plate were pooled for one sample. Frozen roots were homogenized using a TissueLyser II (QIAGEN, 2 × 29 pps for 40 s) with pre-cooled adaptors. RNA was extracted using the Plant RNA Kit (my-Budget) according to the user manual and eluted in 35 µl of elution buffer. RNA concentrations were measured using a spectrometer (Nanodrop OneC Microvolume UV-Vis Spectrophotometer). Complementary DNA was synthesized from 300–500 ng of RNA using the RevertAid H Minus First Strand cDNA Synthesis Kit (ThermoScientific) in a 20-µl reaction according to the user manual. In brief, 1 µl of oligo(dT)18 primer was mixed with RNA in a final volume of 12 µl and incubated at 65 °C for 5 min. Afterwards, 4 µl of 5× Reaction buffer, 2 µl of 10 mM dNTPs, 1 µl of RiboLock RNase Inhibitor (20 U µl^−1) and 1 µl of RevertAid H Minus M-MuLV Reverse Transcriptase (200 U µl^−1) were added, and the reaction was incubated at 42 °C for 60 min followed by heat inactivation at 70 °C for 5 min. cDNA was diluted 1:10 prior to qPCR using the iQ SYBR Green Supermix (Bio-Rad). […]

Ac-SKEKFERTKPHVNVGTIG [elf18]
EFR fold_change (Replicate I): 1.977 and 2.517 and 1.4157 and 1.558 | EFR fold_change (Replicate II): 1.051 and 1.166 and 0.9721 and 1.1066 | EFR fold_change (Replicate III): 1.492 and 1.557 and 2.228 and 1.3126
